Measured values published in paper PMC4854315, “Discovery of a novel allosteric inhibitor-binding site in ERK5: comparison with the canonical kinase hinge ATP-binding site” (Acta Crystallographica. Section D, Structural Biology, 2016).

Experiments:
Assay in all cases: Z'-LYTE kinase panel
Type in all cases: biochemical
DAPK3 (ZIPK) = molecular target: T1, DAPK3 (ZIPK) (Homo sapiens, UniProt O43293)
T1 construct: purchased ThermoFisher (SelectScreen, Z'-LYTE)
Outline: (§1)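 Activity is reported as percent inhibition at one concentration, 10 µM, determined by the standard Z′-LYTE kinase assay across 225 panel kinases.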

CSK = molecular target: T2, CSK (Homo sapiens, UniProt P41240)
T2 construct: purchased ThermoFisher (SelectScreen, Z'-LYTE)
Outline: as §1

MAPK1 (ERK2) = molecular target: T3, MAPK1 (ERK2) (Homo sapiens, UniProt P28482)
T3 construct: purchased ThermoFisher (SelectScreen, Z'-LYTE)
Outline: as §1

SRPK1 = molecular target: T4, SRPK1 (Homo sapiens, UniProt Q96SB4)
T4 construct: purchased ThermoFisher (SelectScreen, Z'-LYTE)
Outline: as §1

PTK2B (FAK2) = molecular target: T5, PTK2B (FAK2) (Homo sapiens, UniProt Q14289)
T5 construct: purchased ThermoFisher (SelectScreen, Z'-LYTE)
Outline: as §1

ADRBK1 (GRK2) = molecular target: T6, ADRBK1 (GRK2) (Homo sapiens, UniProt P25098)
T6 construct: purchased ThermoFisher (SelectScreen, Z'-LYTE)
T6 sequence (P25098 1-689): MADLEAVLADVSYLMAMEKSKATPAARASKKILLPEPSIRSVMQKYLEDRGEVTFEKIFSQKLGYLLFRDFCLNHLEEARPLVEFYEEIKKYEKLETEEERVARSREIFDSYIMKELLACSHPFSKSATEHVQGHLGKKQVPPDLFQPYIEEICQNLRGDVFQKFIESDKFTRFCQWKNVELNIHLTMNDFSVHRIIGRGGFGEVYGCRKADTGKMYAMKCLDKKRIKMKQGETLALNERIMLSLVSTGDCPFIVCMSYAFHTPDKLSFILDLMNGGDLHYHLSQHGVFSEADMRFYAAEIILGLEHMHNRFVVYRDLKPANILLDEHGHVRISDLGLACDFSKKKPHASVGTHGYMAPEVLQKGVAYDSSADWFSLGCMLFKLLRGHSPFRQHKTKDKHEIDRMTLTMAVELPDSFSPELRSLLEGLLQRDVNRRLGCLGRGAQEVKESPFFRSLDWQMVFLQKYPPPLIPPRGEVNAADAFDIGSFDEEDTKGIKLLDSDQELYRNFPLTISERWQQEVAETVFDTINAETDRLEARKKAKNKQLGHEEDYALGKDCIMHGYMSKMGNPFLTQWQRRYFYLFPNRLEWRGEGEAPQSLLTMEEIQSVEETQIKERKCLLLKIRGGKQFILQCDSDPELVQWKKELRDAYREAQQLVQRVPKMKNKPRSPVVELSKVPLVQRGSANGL
Outline: as §1

PRKCN (PKD3) = molecular target: T7, PRKCN (PKD3) (Homo sapiens, UniProt O94806)
T7 construct: purchased ThermoFisher (SelectScreen, Z'-LYTE)
T7 sequence (O94806 1-890): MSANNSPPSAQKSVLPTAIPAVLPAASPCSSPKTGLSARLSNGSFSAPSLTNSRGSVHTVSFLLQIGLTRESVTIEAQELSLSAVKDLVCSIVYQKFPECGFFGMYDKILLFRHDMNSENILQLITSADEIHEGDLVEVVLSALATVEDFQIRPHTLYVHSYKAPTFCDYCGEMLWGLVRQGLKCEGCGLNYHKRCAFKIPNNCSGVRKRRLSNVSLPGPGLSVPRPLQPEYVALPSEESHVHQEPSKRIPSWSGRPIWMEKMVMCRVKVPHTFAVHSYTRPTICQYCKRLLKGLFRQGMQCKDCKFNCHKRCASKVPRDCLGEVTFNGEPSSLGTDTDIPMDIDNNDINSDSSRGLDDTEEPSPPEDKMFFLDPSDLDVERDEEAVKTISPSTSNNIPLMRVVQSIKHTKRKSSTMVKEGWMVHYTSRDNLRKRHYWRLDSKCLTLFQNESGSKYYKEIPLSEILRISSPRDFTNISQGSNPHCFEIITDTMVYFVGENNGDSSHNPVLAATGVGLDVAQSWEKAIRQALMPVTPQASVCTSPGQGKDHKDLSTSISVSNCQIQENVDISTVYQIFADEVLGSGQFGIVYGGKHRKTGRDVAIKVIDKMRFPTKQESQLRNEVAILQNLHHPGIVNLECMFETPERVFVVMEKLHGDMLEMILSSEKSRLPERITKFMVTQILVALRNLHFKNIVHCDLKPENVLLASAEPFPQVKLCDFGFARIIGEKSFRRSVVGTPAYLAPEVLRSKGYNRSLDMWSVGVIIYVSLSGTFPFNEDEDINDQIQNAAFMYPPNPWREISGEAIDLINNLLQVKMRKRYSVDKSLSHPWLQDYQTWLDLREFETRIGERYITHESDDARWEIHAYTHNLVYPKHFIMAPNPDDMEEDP
Outline: as §1

STK22B (TSSK2) = molecular target: T8, STK22B (TSSK2) (Homo sapiens, UniProt Q96PF2)
T8 construct: purchased ThermoFisher (SelectScreen, Z'-LYTE)
T8 sequence (Q96PF2 1-358): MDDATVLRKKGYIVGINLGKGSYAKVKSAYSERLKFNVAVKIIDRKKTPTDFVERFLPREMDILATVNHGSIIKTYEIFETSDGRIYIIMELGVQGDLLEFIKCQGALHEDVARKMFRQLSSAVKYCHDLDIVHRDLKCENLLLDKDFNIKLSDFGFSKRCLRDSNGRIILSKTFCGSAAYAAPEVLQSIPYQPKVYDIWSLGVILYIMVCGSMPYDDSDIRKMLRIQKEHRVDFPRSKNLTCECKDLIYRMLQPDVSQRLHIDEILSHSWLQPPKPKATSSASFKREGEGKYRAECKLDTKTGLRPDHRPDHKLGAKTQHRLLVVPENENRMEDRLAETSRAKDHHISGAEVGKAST
Outline: as §1

PLK3 = molecular target: T9, PLK3 (Homo sapiens, UniProt Q9H4B4)
T9 construct: purchased ThermoFisher (SelectScreen, Z'-LYTE)
Outline: as §1

STK4 (MST1) = molecular target: T10, STK4 (MST1) (Homo sapiens, UniProt Q13043)
T10 construct: purchased ThermoFisher (SelectScreen, Z'-LYTE)
T10 sequence (Q13043 1-487): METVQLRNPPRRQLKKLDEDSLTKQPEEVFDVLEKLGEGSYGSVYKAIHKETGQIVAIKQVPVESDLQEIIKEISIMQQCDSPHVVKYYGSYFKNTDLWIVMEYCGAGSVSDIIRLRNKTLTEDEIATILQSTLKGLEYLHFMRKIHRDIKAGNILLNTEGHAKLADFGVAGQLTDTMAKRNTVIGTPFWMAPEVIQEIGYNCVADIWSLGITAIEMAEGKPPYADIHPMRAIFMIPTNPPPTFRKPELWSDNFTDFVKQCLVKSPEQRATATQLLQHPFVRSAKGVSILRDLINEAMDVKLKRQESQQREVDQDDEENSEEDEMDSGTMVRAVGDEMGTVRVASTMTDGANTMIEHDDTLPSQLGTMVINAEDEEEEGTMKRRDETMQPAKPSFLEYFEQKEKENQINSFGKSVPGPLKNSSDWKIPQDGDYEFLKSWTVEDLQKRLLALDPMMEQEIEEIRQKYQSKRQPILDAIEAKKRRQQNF
Outline: as §1

T4 sequence (Q96SB4 whole entry): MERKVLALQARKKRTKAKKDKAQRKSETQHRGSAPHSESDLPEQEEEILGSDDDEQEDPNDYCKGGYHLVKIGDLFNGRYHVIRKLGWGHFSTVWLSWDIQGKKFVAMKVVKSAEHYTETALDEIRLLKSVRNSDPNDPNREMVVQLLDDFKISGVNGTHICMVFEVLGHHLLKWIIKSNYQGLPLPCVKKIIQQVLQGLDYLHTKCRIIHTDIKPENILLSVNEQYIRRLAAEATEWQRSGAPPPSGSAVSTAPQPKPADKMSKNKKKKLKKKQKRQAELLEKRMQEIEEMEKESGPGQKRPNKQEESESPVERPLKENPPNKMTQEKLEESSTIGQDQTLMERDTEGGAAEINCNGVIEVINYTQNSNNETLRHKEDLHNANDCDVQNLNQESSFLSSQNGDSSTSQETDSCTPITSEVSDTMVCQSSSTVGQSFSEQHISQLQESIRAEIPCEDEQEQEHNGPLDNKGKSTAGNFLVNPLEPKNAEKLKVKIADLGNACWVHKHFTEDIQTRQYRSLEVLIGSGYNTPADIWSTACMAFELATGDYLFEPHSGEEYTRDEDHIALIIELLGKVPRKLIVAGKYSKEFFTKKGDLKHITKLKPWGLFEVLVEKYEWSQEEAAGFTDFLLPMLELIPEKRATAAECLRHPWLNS
T5 sequence (Q14289 whole entry): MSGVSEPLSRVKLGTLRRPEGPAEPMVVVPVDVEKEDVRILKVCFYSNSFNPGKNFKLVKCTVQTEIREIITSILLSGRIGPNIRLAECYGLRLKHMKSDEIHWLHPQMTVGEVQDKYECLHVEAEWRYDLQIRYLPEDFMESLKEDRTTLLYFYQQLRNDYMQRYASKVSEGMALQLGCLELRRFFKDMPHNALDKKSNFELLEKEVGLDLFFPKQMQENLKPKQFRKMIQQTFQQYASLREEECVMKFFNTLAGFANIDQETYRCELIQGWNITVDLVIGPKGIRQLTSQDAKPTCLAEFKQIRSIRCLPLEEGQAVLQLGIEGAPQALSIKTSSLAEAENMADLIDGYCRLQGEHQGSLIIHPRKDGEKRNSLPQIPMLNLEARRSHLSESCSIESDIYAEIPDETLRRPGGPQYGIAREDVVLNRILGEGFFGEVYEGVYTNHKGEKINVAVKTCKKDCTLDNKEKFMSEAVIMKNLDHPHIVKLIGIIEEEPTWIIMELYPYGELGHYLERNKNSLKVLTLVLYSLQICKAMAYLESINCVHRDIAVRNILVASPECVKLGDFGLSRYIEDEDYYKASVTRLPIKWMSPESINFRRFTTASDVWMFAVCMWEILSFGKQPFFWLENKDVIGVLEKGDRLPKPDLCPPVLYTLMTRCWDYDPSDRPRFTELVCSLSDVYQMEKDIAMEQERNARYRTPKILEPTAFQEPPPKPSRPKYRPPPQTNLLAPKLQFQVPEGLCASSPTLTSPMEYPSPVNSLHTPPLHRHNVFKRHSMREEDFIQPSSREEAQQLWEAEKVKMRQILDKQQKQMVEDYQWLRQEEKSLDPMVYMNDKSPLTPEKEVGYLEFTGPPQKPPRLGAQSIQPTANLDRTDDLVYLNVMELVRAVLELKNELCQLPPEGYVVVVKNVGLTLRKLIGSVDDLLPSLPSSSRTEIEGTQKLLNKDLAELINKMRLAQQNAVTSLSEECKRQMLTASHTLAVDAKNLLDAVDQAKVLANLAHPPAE
T9 sequence (Q9H4B4 whole entry): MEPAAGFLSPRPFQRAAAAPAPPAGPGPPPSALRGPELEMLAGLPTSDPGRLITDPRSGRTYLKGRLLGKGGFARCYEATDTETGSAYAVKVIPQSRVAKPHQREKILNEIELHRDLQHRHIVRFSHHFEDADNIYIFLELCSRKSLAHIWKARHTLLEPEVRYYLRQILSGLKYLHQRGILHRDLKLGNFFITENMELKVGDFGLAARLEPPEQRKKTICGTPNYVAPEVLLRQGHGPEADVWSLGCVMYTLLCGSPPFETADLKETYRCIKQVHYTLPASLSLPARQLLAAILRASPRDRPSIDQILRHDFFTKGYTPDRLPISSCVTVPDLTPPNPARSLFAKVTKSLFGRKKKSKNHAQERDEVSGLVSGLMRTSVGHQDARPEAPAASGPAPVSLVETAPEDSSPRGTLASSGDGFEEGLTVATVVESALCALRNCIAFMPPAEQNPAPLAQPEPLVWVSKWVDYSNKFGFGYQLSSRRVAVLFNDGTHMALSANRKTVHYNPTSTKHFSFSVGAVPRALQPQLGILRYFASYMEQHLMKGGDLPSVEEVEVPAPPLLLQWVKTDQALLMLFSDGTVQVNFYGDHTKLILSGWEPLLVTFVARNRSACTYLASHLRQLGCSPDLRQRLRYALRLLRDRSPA
T3 sequence (P28482 whole entry): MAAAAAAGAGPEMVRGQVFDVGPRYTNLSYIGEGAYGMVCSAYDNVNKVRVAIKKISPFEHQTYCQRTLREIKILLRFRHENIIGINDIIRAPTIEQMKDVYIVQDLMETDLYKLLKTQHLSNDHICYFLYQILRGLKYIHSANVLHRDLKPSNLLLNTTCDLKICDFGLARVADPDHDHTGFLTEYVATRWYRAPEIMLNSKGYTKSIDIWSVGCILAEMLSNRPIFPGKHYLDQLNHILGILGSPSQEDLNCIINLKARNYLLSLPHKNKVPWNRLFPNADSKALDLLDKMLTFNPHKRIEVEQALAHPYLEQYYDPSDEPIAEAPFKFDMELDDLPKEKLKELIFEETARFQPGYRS
T2 sequence (P41240 whole entry): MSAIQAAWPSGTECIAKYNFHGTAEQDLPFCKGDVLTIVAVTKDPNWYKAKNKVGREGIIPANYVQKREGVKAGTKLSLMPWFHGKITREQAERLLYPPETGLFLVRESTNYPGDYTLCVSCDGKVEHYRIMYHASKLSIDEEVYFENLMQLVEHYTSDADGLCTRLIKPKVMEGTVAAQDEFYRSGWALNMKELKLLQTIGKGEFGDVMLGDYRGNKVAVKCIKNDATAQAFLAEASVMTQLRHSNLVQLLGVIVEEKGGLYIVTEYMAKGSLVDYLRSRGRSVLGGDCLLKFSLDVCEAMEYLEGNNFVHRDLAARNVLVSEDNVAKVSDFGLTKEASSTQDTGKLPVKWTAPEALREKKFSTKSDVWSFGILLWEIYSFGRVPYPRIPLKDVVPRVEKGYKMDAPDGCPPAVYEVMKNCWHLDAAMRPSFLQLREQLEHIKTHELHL
T1 sequence (O43293 whole entry): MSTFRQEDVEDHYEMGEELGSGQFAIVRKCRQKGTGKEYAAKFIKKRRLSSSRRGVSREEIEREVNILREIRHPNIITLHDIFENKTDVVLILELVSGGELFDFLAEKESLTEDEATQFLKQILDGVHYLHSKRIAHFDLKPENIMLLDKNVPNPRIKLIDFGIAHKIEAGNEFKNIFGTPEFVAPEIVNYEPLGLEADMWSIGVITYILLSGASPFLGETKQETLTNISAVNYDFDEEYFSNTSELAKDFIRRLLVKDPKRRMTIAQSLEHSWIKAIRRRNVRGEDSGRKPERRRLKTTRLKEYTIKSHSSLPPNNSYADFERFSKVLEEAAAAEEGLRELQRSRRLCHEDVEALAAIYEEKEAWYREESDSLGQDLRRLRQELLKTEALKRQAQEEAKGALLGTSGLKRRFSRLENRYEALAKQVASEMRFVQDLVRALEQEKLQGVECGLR

Molecule	inhibition at 10 µM (DAPK3 (ZIPK)) [%]	inhibition at 10 µM (CSK) [%]	inhibition at 10 µM (MAPK1 (ERK2)) [%]	inhibition at 10 µM (SRPK1) [%]	inhibition at 10 µM (PTK2B (FAK2)) [%]	inhibition at 10 µM (ADRBK1 (GRK2)) [%]	inhibition at 10 µM (PRKCN (PKD3)) [%]	inhibition at 10 µM (STK22B (TSSK2)) [%]	inhibition at 10 µM (PLK3) [%]	inhibition at 10 µM (STK4 (MST1)) [%]	DAPK3 (ZIPK) % Inhibition (DAPK3 (ZIPK); 10 µM compound, ATP Km app) [%]	CSK % Inhibition (CSK; 10 µM compound, ATP Km app) [%]	MAPK1 (ERK2) % Inhibition (MAPK1 (ERK2); 10 µM compound, ATP Km app) [%]	SRPK1 % Inhibition (SRPK1; 10 µM compound, ATP Km app) [%]	PTK2B (FAK2) % Inhibition (PTK2B (FAK2); 10 µM compound, ATP Km app) [%]	ADRBK1 (GRK2) % Inhibition (ADRBK1 (GRK2); 10 µM compound, ATP Km app) [%]	PRKCN (PKD3) % Inhibition (PRKCN (PKD3); 10 µM compound, ATP Km app) [%]	STK22B (TSSK2) % Inhibition (STK22B (TSSK2); 10 µM compound, ATP Km app) [%]	PLK3 % Inhibition (PLK3; 10 µM compound, ATP Km app) [%]	STK4 (MST1) % Inhibition (STK4 (MST1); 10 µM compound, ATP Km app) [%]
Cc1ncc(-c2nc(Nc3ccc(C(=O)NCCN4CCCCC4)cc3)ncc2F)n1C(C)C [Compound 3]	78	29	39	24	94	17	87	-7	73	82	–	–	–	–	–	–	–	–	–	–
Cc1cc(Nc2nc(N)nn2C(=O)NC(C)C)ccc1Cl [Compound 5]	-7.41	16	6	2	23	-0.227	11	-10	18	65	–	–	–	–	–	–	–	–	–	–
XMD8-92 [Compound 2, reference compound]	–	–	–	–	–	–	–	–	–	–	-0.894	11	9	-3	20	-1	18	-0.837	99	6
